Experimental data reported in ChEMBL document CHEMBL5223094, “Recent advancements in chromone as a privileged scaffold towards the development of small molecules for neurodegenerative therapeutics” (RSC Med Chem, 2022).
Each block holds one compound with its values, some of them ahead of it.

Experiments:
Beta-secretase 1 = Beta-secretase 1 (Homo sapiens, UniProt P56817); assay: Inhibition of recombinant human BACE-1 expressed in baculovirus using Rh-EVNLDAEFK-Quencher as substrate incubated for 60 mins by FRET assay
[1] = molecular target: Amyloid-beta precursor protein (Homo sapiens) (UniProt P05067); assay: Inhibition of amyloid beta (unknown origin); settings: concentration not given here
[2] = molecular target: Amyloid-beta precursor protein (Homo sapiens) (UniProt P05067); assay: Inhibition of amyloid beta (1 to 42) (unknown origin) aggregation at 50 uM incubated for 24 hrs by ThT fluorometric assay
[3] = molecular target: T1, Amine oxidase [flavin-containing] B (Homo sapiens, UniProt P27338); assay: Inhibition of recombinant human MAO-B using kynuramine as substrate preincubated for 10 mins followed by enzyme addition and measured after 20 mins by fluorescent microplate reader analysis
T1 sequence (P27338 whole entry): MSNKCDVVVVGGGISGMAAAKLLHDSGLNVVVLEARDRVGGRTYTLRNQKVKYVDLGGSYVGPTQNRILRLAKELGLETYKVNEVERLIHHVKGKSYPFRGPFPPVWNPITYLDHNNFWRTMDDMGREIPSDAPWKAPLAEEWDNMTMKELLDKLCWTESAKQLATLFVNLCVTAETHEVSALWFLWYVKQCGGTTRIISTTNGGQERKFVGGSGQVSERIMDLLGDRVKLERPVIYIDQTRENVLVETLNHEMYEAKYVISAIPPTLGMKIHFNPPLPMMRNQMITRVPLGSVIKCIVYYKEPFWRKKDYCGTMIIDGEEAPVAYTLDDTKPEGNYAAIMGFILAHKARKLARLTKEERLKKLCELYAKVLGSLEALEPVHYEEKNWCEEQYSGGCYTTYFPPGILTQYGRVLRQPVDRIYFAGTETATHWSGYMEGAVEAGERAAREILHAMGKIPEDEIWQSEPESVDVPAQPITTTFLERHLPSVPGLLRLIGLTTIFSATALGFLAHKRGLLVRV

Homo sapiens [4] = species on record: Homo sapiens; assay: Selectivity index, ratio of IC50 for inhibition of recombinant human MAO-B to IC50 for inhibition of recombinant human MAO-A
[5] = Selectivity index, ratio of Ki for displacement of [3H](+)-pentazocine from human sigma 1 receptor expressed in human HEK293 cells to Ki for displacement of (+)-[3H]DTG from rat sigma 2 receptor; assay type: cell-based
[6] = molecular target: T1, Amine oxidase [flavin-containing] B; assay: Inhibition of MAO-B (unknown origin)
Homo sapiens [7] = species on record: Homo sapiens; assay: Selectivity index, ratio of IC50 for inhibition of recombinant human MAO-A to IC50 for inhibition of recombinant human MAO-B
[8] = molecular target: T2, Polyunsaturated fatty acid 5-lipoxygenase (Homo sapiens, UniProt P09917); assay: Inhibition of human LOX5 using arachidonic acid preincubated for 10 mins followed by substrate addition by microplate spectrophotometric analysis
T2 sequence (P09917 whole entry): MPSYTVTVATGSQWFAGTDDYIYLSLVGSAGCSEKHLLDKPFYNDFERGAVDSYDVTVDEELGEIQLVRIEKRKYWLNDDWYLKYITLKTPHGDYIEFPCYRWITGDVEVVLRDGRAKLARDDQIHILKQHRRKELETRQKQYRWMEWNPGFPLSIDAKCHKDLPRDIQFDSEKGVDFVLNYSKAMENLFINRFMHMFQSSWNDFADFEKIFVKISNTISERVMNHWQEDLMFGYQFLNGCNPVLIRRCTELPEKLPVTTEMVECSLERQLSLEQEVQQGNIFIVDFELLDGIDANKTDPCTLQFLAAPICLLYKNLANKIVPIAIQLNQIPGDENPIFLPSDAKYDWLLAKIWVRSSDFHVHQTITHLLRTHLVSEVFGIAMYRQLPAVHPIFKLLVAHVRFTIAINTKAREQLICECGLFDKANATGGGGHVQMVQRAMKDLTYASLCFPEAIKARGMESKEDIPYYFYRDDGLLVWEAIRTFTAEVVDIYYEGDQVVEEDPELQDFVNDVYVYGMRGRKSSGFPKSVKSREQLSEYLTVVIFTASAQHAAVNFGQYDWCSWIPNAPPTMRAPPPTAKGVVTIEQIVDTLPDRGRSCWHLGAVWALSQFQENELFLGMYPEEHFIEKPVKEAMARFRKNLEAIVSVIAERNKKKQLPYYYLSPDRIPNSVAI

[9] = molecular target: T3, Prostaglandin G/H synthase 2 (Homo sapiens, UniProt P35354); assay: Inhibition of COX2 (unknown origin) using arachidonic acid as substrate preincubated for 5 mins followed by substrate addition by microplate spectrophotometric analysis
T3 sequence (P35354 whole entry): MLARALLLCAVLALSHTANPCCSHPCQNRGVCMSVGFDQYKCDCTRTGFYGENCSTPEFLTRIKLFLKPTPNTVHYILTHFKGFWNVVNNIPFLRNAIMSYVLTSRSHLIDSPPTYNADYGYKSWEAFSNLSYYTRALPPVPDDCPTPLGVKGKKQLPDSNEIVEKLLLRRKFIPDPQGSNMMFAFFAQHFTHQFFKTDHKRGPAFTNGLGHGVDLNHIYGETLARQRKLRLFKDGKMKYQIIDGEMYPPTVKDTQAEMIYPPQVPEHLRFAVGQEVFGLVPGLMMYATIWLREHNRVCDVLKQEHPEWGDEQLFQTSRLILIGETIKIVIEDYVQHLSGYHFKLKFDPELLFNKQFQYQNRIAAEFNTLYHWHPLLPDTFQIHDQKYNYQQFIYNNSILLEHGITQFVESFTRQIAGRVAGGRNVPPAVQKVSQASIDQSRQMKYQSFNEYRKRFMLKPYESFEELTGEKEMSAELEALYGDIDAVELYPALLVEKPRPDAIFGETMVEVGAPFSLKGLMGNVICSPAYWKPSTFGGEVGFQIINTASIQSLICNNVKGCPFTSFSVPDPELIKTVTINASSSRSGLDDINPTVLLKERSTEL

Cholinesterase [10] = molecular target: T4, Cholinesterase (Homo sapiens, UniProt P06276); assay: Inhibition of recombinant human BuChE using butyrylthiocholine as substrate preincubated for 15 mins followed by substrate addition and measured after 5 mins by Ellman's method
Acetylcholinesterase = Acetylcholinesterase (Homo sapiens, UniProt P22303); assay: Inhibition of recombinant human AChE using acetylthiocholine as substrate preincubated for 15 mins followed by substrate addition and measured after 5 mins by DTNB reagent based Ellman's method
[11] = molecular target: T2, Polyunsaturated fatty acid 5-lipoxygenase; assay: Inhibition of LOX5 (unknown origin)
[12] = Inhibition of soybean LOX15 using arachidonic acid preincubated for 5 mins followed by substrate addition and measured after 5 mins by microplate spectrophotometric analysis; set-up: species or system Glycine max
[13] = molecular target: T3, Prostaglandin G/H synthase 2; assay: Inhibition of COX2 (unknown origin)
Cholinesterase [14] = molecular target: T4, Cholinesterase; assay: Inhibition of BuChE (unknown origin)
[15] = molecular target: Amyloid-beta precursor protein (Homo sapiens) (UniProt P05067); assay: Inhibition of self-induced amyloid beta (1 to 42) (unknown origin) aggregation by ThT fluorometric assay; settings: concentration not given here

Sequence of Amyloid-beta precursor protein (Homo sapiens) (P05067 whole entry): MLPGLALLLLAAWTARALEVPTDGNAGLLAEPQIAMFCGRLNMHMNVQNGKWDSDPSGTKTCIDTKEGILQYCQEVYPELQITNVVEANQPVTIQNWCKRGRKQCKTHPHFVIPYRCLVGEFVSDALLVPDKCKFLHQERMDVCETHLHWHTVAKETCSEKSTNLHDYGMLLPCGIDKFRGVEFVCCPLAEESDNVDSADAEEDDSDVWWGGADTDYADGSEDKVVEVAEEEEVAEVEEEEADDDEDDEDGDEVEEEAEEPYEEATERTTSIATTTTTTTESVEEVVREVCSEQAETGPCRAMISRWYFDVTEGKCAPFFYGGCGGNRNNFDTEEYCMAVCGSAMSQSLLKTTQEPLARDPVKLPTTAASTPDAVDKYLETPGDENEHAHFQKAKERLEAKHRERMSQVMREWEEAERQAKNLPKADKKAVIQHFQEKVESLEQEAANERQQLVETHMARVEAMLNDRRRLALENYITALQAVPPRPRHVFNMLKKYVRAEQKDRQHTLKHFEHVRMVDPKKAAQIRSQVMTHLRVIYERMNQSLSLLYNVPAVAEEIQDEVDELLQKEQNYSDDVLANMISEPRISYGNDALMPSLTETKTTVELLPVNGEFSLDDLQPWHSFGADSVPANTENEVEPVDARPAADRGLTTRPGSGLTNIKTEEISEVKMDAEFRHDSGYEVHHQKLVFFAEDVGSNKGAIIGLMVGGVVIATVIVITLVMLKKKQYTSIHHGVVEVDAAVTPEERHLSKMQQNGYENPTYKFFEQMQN
Sequence of Beta-secretase 1 (P56817 whole entry): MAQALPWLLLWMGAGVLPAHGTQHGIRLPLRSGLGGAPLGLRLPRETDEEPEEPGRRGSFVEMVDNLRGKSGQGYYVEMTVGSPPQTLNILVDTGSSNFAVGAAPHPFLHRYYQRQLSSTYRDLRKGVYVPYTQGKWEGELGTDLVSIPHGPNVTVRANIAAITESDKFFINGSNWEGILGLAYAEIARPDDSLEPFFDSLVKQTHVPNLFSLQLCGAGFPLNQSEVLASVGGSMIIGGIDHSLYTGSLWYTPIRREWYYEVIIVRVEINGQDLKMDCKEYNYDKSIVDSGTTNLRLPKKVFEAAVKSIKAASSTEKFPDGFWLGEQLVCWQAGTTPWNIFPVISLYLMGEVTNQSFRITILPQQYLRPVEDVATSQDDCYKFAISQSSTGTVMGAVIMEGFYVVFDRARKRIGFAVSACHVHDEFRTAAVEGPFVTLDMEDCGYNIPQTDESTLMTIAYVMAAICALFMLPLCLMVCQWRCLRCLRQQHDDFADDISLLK
T4 sequence (P06276 whole entry): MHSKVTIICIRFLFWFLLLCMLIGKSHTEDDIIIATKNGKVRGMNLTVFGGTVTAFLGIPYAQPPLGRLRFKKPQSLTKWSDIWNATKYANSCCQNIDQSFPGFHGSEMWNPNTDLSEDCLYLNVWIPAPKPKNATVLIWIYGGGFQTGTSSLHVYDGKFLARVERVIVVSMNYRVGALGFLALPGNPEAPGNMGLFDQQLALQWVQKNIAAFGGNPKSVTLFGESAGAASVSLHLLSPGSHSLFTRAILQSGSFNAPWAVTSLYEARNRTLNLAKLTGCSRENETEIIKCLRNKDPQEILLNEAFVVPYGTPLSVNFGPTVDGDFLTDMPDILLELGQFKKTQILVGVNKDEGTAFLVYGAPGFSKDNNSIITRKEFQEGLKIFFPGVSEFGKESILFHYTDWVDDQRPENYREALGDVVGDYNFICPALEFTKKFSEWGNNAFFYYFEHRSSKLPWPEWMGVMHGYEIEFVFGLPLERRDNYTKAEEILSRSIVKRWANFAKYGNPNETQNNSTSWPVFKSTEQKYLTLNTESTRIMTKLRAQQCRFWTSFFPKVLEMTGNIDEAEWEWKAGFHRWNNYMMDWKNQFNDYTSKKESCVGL
Sequence of Acetylcholinesterase (P22303 whole entry): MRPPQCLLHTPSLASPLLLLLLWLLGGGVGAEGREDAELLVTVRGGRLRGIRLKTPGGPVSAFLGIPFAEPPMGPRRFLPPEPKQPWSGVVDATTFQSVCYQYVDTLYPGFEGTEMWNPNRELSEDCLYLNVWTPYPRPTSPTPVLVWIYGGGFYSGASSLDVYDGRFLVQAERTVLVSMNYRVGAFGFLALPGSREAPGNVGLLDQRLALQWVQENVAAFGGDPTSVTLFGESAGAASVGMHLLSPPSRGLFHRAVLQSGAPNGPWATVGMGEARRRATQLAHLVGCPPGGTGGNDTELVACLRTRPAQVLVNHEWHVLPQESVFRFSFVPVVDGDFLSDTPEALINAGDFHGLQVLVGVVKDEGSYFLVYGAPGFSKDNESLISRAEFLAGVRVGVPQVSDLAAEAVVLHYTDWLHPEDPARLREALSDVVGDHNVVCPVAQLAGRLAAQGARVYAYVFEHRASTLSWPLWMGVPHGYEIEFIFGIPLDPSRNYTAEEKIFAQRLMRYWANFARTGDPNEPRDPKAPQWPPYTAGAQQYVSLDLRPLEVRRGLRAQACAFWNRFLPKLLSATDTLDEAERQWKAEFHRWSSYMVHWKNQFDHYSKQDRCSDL

- IC50 (Beta-secretase 1): 16 µM
SMILES: COc1ccc(-c2oc3cc(Br)c(I)cc3c(=O)c2O)cc1

- inhibition [1]: 80.4%
- inhibition [2]: 80%
SMILES: COc1cccc2oc3c(c(=O)c12)[C@@H](O)CC3

- IC50 [3]: 0.15 µM
- Ratio IC50 (Homo sapiens [4]): > 670
SMILES: COc1ccc2c(=O)cc(-n3ccc4ccccc43)oc2c1

SMILES: O=c1ccoc2ccc(OCCCCCN3CCOCC3)cc12
- Ratio Ki [5]: 130

SMILES: O=c1ccoc2ccc(OCCCN3CCCCCC3)cc12
- Ratio Ki [5]: 28

- IC50 [3]: 0.15 µM
- Ratio IC50 (Homo sapiens [4]): > 670
SMILES: COc1ccc2ccn(-c3cc(=O)c4ccccc4o3)c2c1

- IC50 [3]: 0.015 µM
- IC50 [6]: 0.015 µM
- Ratio IC50 (Homo sapiens [4]): > 6700
SMILES: COc1ccc2c(=O)c(N3CCN(c4ccccc4)CC3)coc2c1

- Ratio IC50 (Homo sapiens [7]): 1500
SMILES: COc1ccc2oc(/C=C/c3ccc(Cl)cc3)cc(=O)c2c1

- inhibition [2]: 74%
SMILES: COc1cccc2oc3c(c(=O)c12)[C@H](O)CC3

SMILES: O=c1c(/C=N/Nc2ccc(C(F)(F)F)cc2)coc2c1ccc1oc(-c3ccc(Cl)cc3)cc12
- IC50 (Beta-secretase 1): 14 µM
- IC50 [8]: 29 µM
- IC50 [9]: 10 µM
- IC50 (Cholinesterase [10]): 10 µM
- IC50 (Acetylcholinesterase): 5 µM
- IC50 [11]: 28.5 µM
- IC50 [12]: 15 µM
- IC50 [13]: 10.4 µM

SMILES: O=C(CCCCC1CCSS1)NCc1cn(CCCCOc2ccc3c(=O)ccoc3c2)nn1 (centres undefined)
- IC50 (Cholinesterase [14]): 8 µM
- inhibition [15]: 13%
